pIC50: −log10 of the molar value.

In assay [1] the target is immunoproteasome LMP7/B5i subunit (Homo sapiens, UniProt P28062). Kind of assay: Caliper-based proteasome enzymatic activity assay, LMP7. It is filed as biochemical. To be noted: human recombinant immunoproteasome 0.3 nM, FAM-labeled peptide substrate 1 μM, rt 3 h; read-out: LMP7 subunit IC50.
Assay [2] addresses constitutive proteasome β5c unit (Homo sapiens, UniProt P28074). In words: Caliper-based proteasome enzymatic activity assay, β5c. The format is biochemical. Particulars: human recombinant constitutive proteasome 0.3 nM, FAM-labeled peptide substrate 1 μM, rt 3 h; read-out: β5c subunit IC50.

In the case of `CC(C)(C=C(C#N)C(=O)N1CC[C@H](COC(=O)N[C@@H](Cc2ccccc2)B(O)O)C1)N1CCC(F)(F)C1` [Example 95, ((R)-1-(((((S)-1-(2-cyano-4-(3,3-difluoropyrrolidin-1-yl)-4-methylpent-2-enoyl)pyrrolidin-3-yl)methoxy)carbonyl)amino)-2-phenylethyl)boronic acid], the values for the pIC50 in assay [1] and in assay [2] were 8.16 and 5.58, respectively.
The matching figures for `CC(C)C=C(C#N)C(=O)NCCCC[C@H](NC(=O)[C@H](C)NC(=O)C(C)C)C(=O)N[C@@H](CC(C)C)B(O)O` [Example 1, ((R)-1-((S)-6-(2-cyano-4-methylpent-2-enamido)-2-((S)-2-isobutyramidopropanamido)hexanamido)-3-methylbutyl)boronic acid]: 7.68 and 7.92.
For `CC(C)(C=C(C#N)C(=O)N1CCC[C@H](NC(=O)N[C@@H](Cc2ccccc2)B(O)O)C1)N1CCC(F)(F)C1` [Example 112, ((R)-1-(3-((S)-1-(2-cyano-4-(3,3-difluoropyrrolidin-1-yl)-4-methylpent-2-enoyl)piperidin-3-yl)ureido)-2-phenylethyl)boronic acid] the same measures were 6.84 and 5.65.
In the case of `CC(C)(C=C(C#N)C(=O)N1CCCC[C@H](OC(=O)N[C@@H](Cc2ccccc2)B(O)O)C1)N1CCOCC1` (single isomer, unassigned) [Example 104], the pIC50 in assay [1] was 8.62; in assay [2], less than 5.30.
On to `CC(C)C=C(C#N)C(=O)NCCCC[C@H](NC(=O)[C@@H](NC(=O)C(C)C)[C@@H](C)O)C(=O)N[C@@H](Cc1ccccc1)B(O)O` [Example 10, ((R)-1-((S)-6-(2-cyano-4-methylpent-2-enamido)-2-((2S,3R)-3-hydroxy-2-isobutyramidobutanamido)hexanamido)-2-phenylethyl)boronic acid], for which the pIC50 in assay [1] is 8.18; in assay [2] it was 7.83.
For `CC1(OC(=O)N[C@@H](Cc2ccc(F)cc2)B(O)O)CCCN(C(=O)C(C#N)=CC(C)(C)N2CCC(F)(F)C2)C1` (mixture of isomers) [Example 94, ((1R)-1-((((1-(2-cyano-4-(3,3-difluoropyrrolidin-1-yl)-4-methylpent-2-enoyl)-3-methylpiperidin-3-yl)oxy)carbonyl)amino)-2-(4-fluorophenyl)ethyl)boronic acid] the same measures were 6.62 and less than 5.30.
The matching figures for `CC(C)(C=C(C#N)C(=O)N1CCC[C@@H]1CNC(=O)N[C@@H](Cc1coc2ccccc12)B(O)O)N1CCC(F)(F)C1` [Example 50, ((R)-2-(benzofuran-3-yl)-1-(3-(((R)-1-(2-cyano-4-(3,3-difluoropyrrolidin-1-yl)-4-methylpent-2-enoyl)pyrrolidin-2-yl)methyl)ureido)ethyl)boronic acid]: 8.40 and 5.92.
The matching figures for `C[C@@H]1CN(C(C)(C)C=C(C#N)C(=O)N2CCCC[C@@H](OC(=O)N[C@@H](Cc3ccccc3)B(O)O)C2)C[C@H](C)O1` [Example 127, ((R)-1-(((((R)-1-(2-cyano-4-((2S,6R)-2,6-dimethylmorpholino)-4-methylpent-2-enoyl)azepan-3-yl)oxy)carbonyl)amino)-2-phenylethyl)boronic acid]: 8.62 and 5.62.
Take `CC(C)(C=C(C#N)C(=O)N1C[C@@H](F)[C@H](OC(=O)N[C@@H](Cc2ccccc2)B(O)O)C1)N1CCC(F)(F)C1` [Example 113, ((R)-1-(((((3R,4R)-1-(2-cyano-4-(3,3-difluoropyrrolidin-1-yl)-4-methylpent-2-enoyl)-4-fluoropyrrolidin-3-yl)oxy)carbonyl)amino)-2-phenylethyl)boronic acid]: the pIC50 in assay [1] was 8.64; in assay [2], 6.28.
Consider `CC(C)(C=C(C#N)C(=O)N1C2CCC1(COC(=O)N[C@@H](Cc1ccc(F)cc1)B(O)O)CC2)N1CCC(F)(F)C1` [Example 84, (R)-(1-((((7-(2-cyano-4-(3,3-difluoropyrrolidin-1-yl)-4-methylpent-2-enoyl)-7-azabicyclo[2.2.1]heptan-1-yl)methoxy)carbonyl)amino)-2-(4-fluorophenyl)ethyl)boronic acid], for which the pIC50 was 9.15 in assay [1] and 6.55 in assay [2].
With `CC(C)(C=C(C#N)C(=O)N1CCCC[C@@H](OC(=O)N[C@@H](Cc2ccccc2)B(O)O)C1)N1CCC(F)(F)C1` (single isomer, unassigned) [Example 105], the pIC50 is 8.80 in assay [1] and 5.87 in assay [2].
On to `CC(C)(C=C(C#N)C(=O)N1CCCC[C@@H](OC(=O)N[C@@H](Cc2ccccc2)B(O)O)C1)N1CC2CC(C1)O2` [Example 134, ((1R)-1-(((((3R)-1-(4-(6-oxa-3-azabicyclo[3.1.1]heptan-3-yl)-2-cyano-4-methylpent-2-enoyl)azepan-3-yl)oxy)carbonyl)amino)-2-phenylethyl)boronic acid], for which the pIC50 in assay [1] is 8.72; in assay [2], 6.00.
As for `C[C@@H]1CN(C(C)(C)C=C(C#N)C(=O)N2CCCC[C@@H](OC(=O)N[C@@H](Cc3ccccc3)B(O)O)C2)C[C@@H](C)O1` [Example 129], the pIC50 is 8.57 in assay [1] and 6.13 in assay [2].
As to `CC(C)C=C(C#N)C(=O)N1CCC[C@@H]1COC[C@H](NCC(F)(F)F)C(=O)N[C@@H](Cc1coc2ccccc12)B(O)O` [Example 31, ((R)-2-(benzofuran-3-yl)-1-((S)-3-(((R)-1-(2-cyano-4-methylpent-2-enoyl)pyrrolidin-2-yl)methoxy)-2-((2,2,2-trifluoroethyl)amino)propanamido)ethyl)boronic acid], the pIC50 in assay [1] is 7.94; in assay [2] it was 7.40.
The matching figures for `CC(C)(C=C(C#N)C(=O)N1CCO[C@@H](CC(=O)N[C@@H](Cc2ccccc2)B(O)O)C1)N1CCC(F)(F)C1` [Example 61, ((R)-1-(2-((S)-4-(2-cyano-4-(3,3-difluoropyrrolidin-1-yl)-4-methylpent-2-enoyl)morpholin-2-yl)acetamido)-2-phenylethyl)boronic acid]: 7.96 and 6.73.
The matching figures for `C[C@@H]1CN(C(C)(C)C=C(C#N)C(=O)N2CCCC[C@@H](OC(=O)N[C@@H](Cc3ccccc3)B(O)O)C2)CCO1` [Example 131, ((R)-1-(((((R)-1-(2-cyano-4-methyl-4-((R)-2-methylmorpholino)pent-2-enoyl)azepan-3-yl)oxy)carbonyl)amino)-2-phenylethyl)boronic acid]: 8.59 and 5.83.
Turning to `C=CC(=O)N1C[C@H](OC(=O)N[C@@H](Cc2ccccc2)B(O)O)[C@@H](F)C1` [Example 110, ((R)-1-(((((3S,4S)-1-acryloyl-4-fluoropyrrolidin-3-yl)oxy)carbonyl)amino)-2-phenylethyl)boronic acid], the pIC50 in assay [1] was 7.11; in assay [2] it was 5.55.
For `CC(C)(C=C(C#N)C(=O)N1CCCC[C@@H](OC(=O)N[C@@H](Cc2ccccc2)B(O)O)C1)N1CCOCC1` (single isomer, unassigned) [Example 103], the figures for the pIC50 in assay [1] and in assay [2] were 8.66 and 5.50, respectively.
Take `CC(C)(C=C(C#N)C(=O)N1CCC[C@H](OC(=O)N[C@@H](Cc2ccccc2)B(O)O)C1)N1CCN2C(=O)OC[C@H]2C1` [Example 98, ((R)-1-(((((S)-1-(2-cyano-4-methyl-4-((R)-3-oxotetrahydro-3H-oxazolo[3,4-a]pyrazin-2(1H)-yl)pent-2-enoyl)piperidin-3-yl)oxy)carbonyl)amino)-2-phenylethyl)boronic acid]: the negative logarithm of the IC50 (pIC50) in assay [1] was 8.25; in assay [2], 5.60.
The matching figures for `CC(C)(C=C(C#N)C(=O)N1C[C@H](OC(=O)N[C@@H](Cc2ccccc2)B(O)O)[C@@H](F)C1)N1CCC(F)(F)C1` [Example 109, ((R)-1-(((((3S,4S)-1-(2-cyano-4-(3,3-difluoropyrrolidin-1-yl)-4-methylpent-2-enoyl)-4-fluoropyrrolidin-3-yl)oxy)carbonyl)amino)-2-phenylethyl)boronic acid]: 8.46 and 6.21.
Regarding `CC(C)(C=C(C#N)C(=O)N1C[C@@H](F)[C@@H](OC(=O)N[C@@H](Cc2ccccc2)B(O)O)C1)N1CCC(F)(F)C1` [Example 125, ((R)-1-(((((3S,4R)-1-(2-cyano-4-(3,3-difluoropyrrolidin-1-yl)-4-methylpent-2-enoyl)-4-fluoropyrrolidin-3-yl)oxy)carbonyl)amino)-2-phenylethyl)boronic acid], the pIC50 in assay [1] was 8.43; in assay [2], 6.09.
As to `CC(C)(C=C(C#N)C(=O)N1CCCC[C@H](OC(=O)N[C@@H](Cc2ccccc2)B(O)O)C1)N1CCC(F)(F)C1` [Example 106, ((R)-1-(((((S)-1-(2-cyano-4-(3,3-difluoropyrrolidin-1-yl)-4-methylpent-2-enoyl)azepan-3-yl)oxy)carbonyl)amino)-2-phenylethyl)boronic acid], the pIC50 was 8.60 in assay [1] and 5.58 in assay [2].
On to `CC(C)(C=C(C#N)C(=O)N1CCC[C@H](COC(=O)N[C@@H](Cc2ccccc2)B(O)O)C1)N1CCC(F)(F)C1` [Example 53, ((R)-1-(((((S)-1-(2-cyano-4-(3,3-difluoropyrrolidin-1-yl)-4-methylpent-2-enoyl)piperidin-3-yl)methoxy)carbonyl)amino)-2-phenylethyl)boronic acid], for which the pIC50 in assay [1] was 8.36; in assay [2], less than 5.30.
With `C=CC(=O)N1CC(COC(=O)N[C@@H](Cc2ccccc2)B(O)O)C1` [Example 86, (R)-(1-((((1-acryloylazetidin-3-yl)methoxy)carbonyl)amino)-2-phenylethyl)boronic acid], the pIC50 in assay [1] was 7.23; in assay [2] it was 6.66.
The matching figures for `CN1CCN(C(C)(C)C=C(C#N)C(=O)N2CCC[C@H](OC(=O)N[C@@H](Cc3ccccc3)B(O)O)C2)CC1` [Example 80, ((R)-1-(((((S)-1-(2-cyano-4-methyl-4-(4-methylpiperazin-1-yl)pent-2-enoyl)piperidin-3-yl)oxy)carbonyl)amino)-2-phenylethyl)boronic acid]: 8.41 and 5.86.

The values are drawn from patent publication US12312370B2, “Immunoproteasome inhibitors” (Principia Biopharma Inc., priority 2017, dated 2025).
